Assay results taken from publication PMC10088252.

Key:
[1] = Plasma PK after multiple doses for 28 days, Part A (PKAS), routine PK analysis; format: in vivo, human
Protocol: Serial peripheral blood samples were collected at pre-dose on Cycle 1 Day 8, Cycle 1 Day 15 and Cycle 1 Day 22 for the trough concentration (Ctrough) obtained during the dosing interval. […] After Cycle 1, the Ctrough was measured every 4 or 8 or 12 weeks. The whole blood (3 mL) was taken intravenously and placed in sodium heparin tubes, gently turned over 15 times, and centrifuged within 1 h (4 °C 3000 rpm for 10 min). Two portions of the centrifuged upper plasma should be transferred to 1.5 mL centrifuge tubes with identification labels and stored at -80 °C. The following PK parameters were assessed: time to maximum plasma concentration at steady state (Tmax,ss), overall body clearance at steady state for extravascular dosage (CLss/F), terminal half-life (T1/2), plasma Ctrough observed in Cycle 1 at steady state, total volume of drug distribution at steady state according to the terminal phase (Vz,ss/F), AUC over a dosing interval (AUCtau), ratio of metabolites to parent drug calculated based on AUCtau (MP ratio).
Statistical analyses were performed using SAS version 9.4 (SAS Institute, Cary, NC, USA). Age was expressed as median (range), and categorical variables were expressed as frequency (percentage). The 95% CIs of ORR and DCR were calculated using Clopper-Pearson method. The 95% CIs of PFS and OS were calculated using Brookmeyer-Crowley method. PK parameters were expressed as mean (standard deviation) or median (range), and analyzed using Phoenix version 8.0 (Certara, LP, Princeton, NJ, USA). No imputation method was performed for missing data.

[2] = Chinese patients with advanced NSCLC, even at 800 mg QD; cited from earlier work

O=C(Nc1ccc(Oc2ccnc3c2CCN3)c(F)c1)c1c[nH]cc(-c2ccc(F)cc2)c1=O
AUCtau, mean (SD) ([1]; 300 mg QD (n=7), 28 days): 7680.0 (4120.0) h × ng/mL | CLss/F, mean (SD) ([1]; 300 mg QD (n=7), 28 days): 50.4 (25.6) L/h | Cmax,ss, mean (SD) ([1]; 300 mg QD (n=7), 28 days): 794.0 (370.0) ng/mL | Cmin,ss, mean (SD) ([1]; 300 mg QD (n=7), 28 days): 104.0 (49.0) ng/mL | Ctrough, mean (SD) ([1]; 300 mg QD (n=7), 28 days): 113.5 (55.0) ng/mL | T1/2, mean (SD) ([1]; 300 mg QD (n=7), 28 days): 11.2 (2.8) h | Tmax,ss, mean (SD) ([1]; 300 mg QD (n=7), 28 days): 3.9 (2.0) h | Vz,ss/F, mean (SD) ([1]; 300 mg QD (n=7), 28 days): 781.0 (357.0) L | AUCtau, mean (SD) ([1]; 450 mg QD (n=7), 28 days): 11,000.0 (5970.0) h × ng/mL | CLss/F, mean (SD) ([1]; 450 mg QD (n=7), 28 days): 57.6 (39.5) L/h | Cmax,ss, mean (SD) ([1]; 450 mg QD (n=7), 28 days): 932.0 (480.0) ng/mL | Cmin,ss, mean (SD) ([1]; 450 mg QD (n=7), 28 days): 168.0 (127.0) ng/mL | Ctrough, mean (SD) ([1]; 450 mg QD (n=7), 28 days): 184.1 (131.2) ng/mL | T1/2, mean (SD) ([1]; 450 mg QD (n=7), 28 days): 11.8 (4.8) h | Tmax,ss, mean (SD) ([1]; 450 mg QD (n=7), 28 days): 4.0 (1.0) h | Vz,ss/F, mean (SD) ([1]; 450 mg QD (n=7), 28 days): 1050.0 (974.0) L | AUCtau, mean (SD) ([1]; 600 mg QD (n=7), 28 days): 10,100.0 (5350.0) h × ng/mL | CLss/F, mean (SD) ([1]; 600 mg QD (n=7), 28 days): 83.2 (58.9) L/h | Cmax,ss, mean (SD) ([1]; 600 mg QD (n=7), 28 days): 788.0 (394.0) ng/mL | Cmin,ss, mean (SD) ([1]; 600 mg QD (n=7), 28 days): 157.0 (89.6) ng/mL | Ctrough, mean (SD) ([1]; 600 mg QD (n=7), 28 days): 203.9 (99.2) ng/mL | T1/2, mean (SD) ([1]; 600 mg QD (n=7), 28 days): 12.7 (4.8) h | Tmax,ss, mean (SD) ([1]; 600 mg QD (n=7), 28 days): 3.9 (2.0) h | Vz,ss/F, mean (SD) ([1]; 600 mg QD (n=7), 28 days): 1780.0 (2080.0) L | Ctrough, mean (SD) ([1]; Cycle 1 Day 8 (192 h), 300 mg QD (n=7)): 163.0 (241.5) ng/mL | Ctrough, mean (SD) ([1]; Cycle 1 Day 8 (192 h), 450 mg QD (n=7)): 178.1 (128.0) ng/mL | Ctrough, mean (SD) ([1]; Cycle 1 Day 8 (192 h), 600 mg QD (n=7)): 165.6 (66.6) ng/mL | Ctrough, mean (SD) ([1]; Cycle 1 Day 15 (360 h), 300 mg QD (n=7)): 161.5 (126.3) ng/mL | Ctrough, mean (SD) ([1]; Cycle 1 Day 15 (360 h), 450 mg QD (n=7)): 216.5 (111.8) ng/mL | Ctrough, mean (SD) ([1]; Cycle 1 Day 15 (360 h), 600 mg QD (n=7)): 188.7 (67.3) ng/mL | Ctrough, mean (SD) ([1]; Cycle 1 Day 22 (528 h), 300 mg QD (n=7)): 124.2 (126.2) ng/mL | Ctrough, mean (SD) ([1]; Cycle 1 Day 22 (528 h), 450 mg QD (n=7)): 236.3 (83.4) ng/mL | Ctrough, mean (SD) ([1]; Cycle 1 Day 22 (528 h), 600 mg QD (n=7)): 164.1 (65.7) ng/mL | median Tmax,ss ([1]; among 300, 450, 600 mg QD cohorts, 28 days): 4.0 h | time to steady state ([1]; continuous administration): seven | dose-limiting toxicity (DLT) [2]: No dose-limiting toxicity (DLT) occurred
